Experimental data taken from patent US20210348171A1, “PHARMACOPROTEOMICS PLATFORM IDENTIFYING KINOME FEATURES REGULATING DRUG RESPONSE IN CANCER” (University of Washington, priority 2020, published 2021).

Key:
Type in all cases: cell-based, Human
SNU449 cells = assay: Inhibitor co-treatment growth inhibition (WZ4003 with AZD7762 or dinaciclib); details: for dose dependence of the cotreatment effect: AZD7762 plus WZ4003; for decrease of EC50 on cotreatment with WZ4003: cotreatment with NUAK1/2 inhibitor WZ4003, 72 h, n=4
Source text: To identify combinatorial treatment strategies targeting mesenchymal and drug resistant HCC cells, the next step was to analyze drug sensitivity pathways that become activated upon AXL and NUAK1/2 inhibition and EMT reversal. […] It was also observed increased cell cycle activity among epithelial lines in the 17 HCC line panel (FIG. 9B), that was accompanied by elevated activity of kinases promoting DDR signaling and cell survival under conditions of replication stress. For instance, activation of CHEK1 and 2 along with increased phosphorylation of ATR, CHEK1/2 and WEE1 substrates were observed (FIGS. 4A and 9C). Similarly, AXL RNAi in FOCUS cells activated the DDR kinases CHEK1 and WEE1, increasing phosphorylation of their substrates CDK11B and CDK2 (FIGS. 4B and 9D). […] It was reasoned, therefore, that combinatorial inhibition of AXL or NUAK1/2, as well as cell cycle checkpoint kinases could efficiently kill mesenchymal HCC cells (FIG. 4D). To test this strategy, the mesenchymal and drug resistant SNU449 line was cotreated with the selective NUAK1/2 inhibitor WZ4003 (Banerjee, S., et al. (2014). Characterization of WZ4003 and HTH-01-015 as selective inhibitors of the LKB1-tumour-suppressor-activated NUAK kinases. Biochem J 457, 215-225, incorporated herein by reference in its entirety) and the CHEK1/2 inhibitor AZD7762. Additionally, the CDK inhibitor dinaciclib was used to test if elevated, EMT state-dependent, cell cycle activity translates into increased efficacy of such drugs. […] These encouraging results led to establishment of SNU449 NUAK1 or NUAK2 RNAi cells (FIG. 9E). Gratifyingly, treating SNU449 NUAK RNAi cells and WT controls with varying doses of AZD7762 and dinaciclib recapitulated the drug co-treatment results (˜3- to 4-fold decrease in EC50s, FIG. 4H). To consolidate these findings, the FOCUS NUAK and AXL RNAi cell lines were tested against AZD7762 and dinaciclib. As in SNU449 cells, NUAK1/2 RNAi FOCUS cells were sensitized to kinase inhibition up to ˜5-fold (FIG. 4I).
1800 cells/well were seeded onto white flat bottom half area 96-well plates (Greiner Bio-One, Kremsmuenster, AT) in 50 μl of growth medium and allowed to attach in an incubator for 24 h. Then the drugs in DMSO and/or DMSO vehicle controls as 11× solutions in growth medium were added to a total volume of 55 μl and 0.1% DMSO final. The cells were grown in an incubator for another 72 h. Then, 55 μl of CellTiter-Glo 2.0 (Promega, Madison, Wis.) reagent/well were added according to the manufacturer's instructions and luminescence was quantified with a SpectraMax 190 plate reader (Molecular Devices, San Jose, Calif.). The CHEK1/2 inhibitor AZD7762 (Selleckchem, Houston, Tex.) and the NUAK1/2 inhibitor WZ4003 (Tocris Bioscience, Minneapolis, Minn.) were applied at 8 different concentrations between 10 μM and 4.6 nM (3-fold dilution steps) and Dinaciclib (Selleckchem) was applied at 8 different concentrations between 1 μM and 0.5 nM (3-fold dilution steps). Experiments were performed in four biological replicates. Growth inhibition curves were fitted using the GraphPad Prism software package (V5.0a) with a least-squares nonlinear regression model for curve fitting (One site-Fit log IC50 function).

[1] = test system: mesenchymal HCC cells with CAMK1D shRNAi knockdown; assay: Drug sensitization in CAMK1D knockdown lines (Cell Titer Glo 2.0); details: RNAi lines vs scramble control, 72 hours
Source text: The approach to validate the role AAK1 is represented schematically in FIG. 10A. As illustrated, the general workflow pipeline is to test the biological function of kinases and their interaction partners function in EMT and cancer therapy resistance. (1) Kinases and their interaction partners are depleted from cell lines using either small hairpin RNAs (shRNAs) or CRISPR/Cas9 knockout. (2) Effects of RNAi knockdown (KD) or CRISPR knockout (KO) are quantified on cellular signaling pathways using unbiased MS-based kinome-centric and global proteome and phosphoproteome profiling. (3) KD/KO effects on EMT state are studied by quantifying 12 well-known EMT and stemness markers such as CDH1, VIM, SNAI2 and TWIST1 using qPCR and western blotting. (4) KD/KO effects are confirmed/determined on cancer therapy resistance by treating KD/KO cell lines with 15 clinical and pre-clinical HCC drugs, quantifying cell viability using the Promega Cell Titer Glo 2.0 assay. […] (5) KD/KO effects are measured on cell migration and invasion by conducting trans-well migration and wound scratch assays. […]
Further analyses of CAMK1D were conducted to further investigate its role in EMT and potential therapeutic target. […] Phosphoproteins were quantified using global MS-based phosphoproteomics according to our previously published protocol. […]

[2] = test system: FOCUS, SKHep1, SNU761 RNAi lines; assay: Drug synergy in AAK1, RALBP1, REPS1, REPS2 knockdown lines (Cell Titer Glo 2.0); details: RNAi lines vs scramble control, 72 hours
Source text: (1) Kinases and their interaction partners are depleted from cell lines using either small hairpin RNAs (shRNAs) or CRISPR/Cas9 knockout. […] This assay aims to discover drug synergies that may be exploited to develop novel combination therapies.
The next step was to assess the ability of an AAK1 knockdown to sensitize the cells to extant KI targeting therapeutics.

decrease of EC50 on cotreatment with WZ4003 (SNU449 cells) [fold] | SMILES | significance of the cotreatment effect at low WZ4003 (SNU449 cells; 1 μM of WZ4003 with AZD7762) | dose dependence of the cotreatment effect (SNU449 cells) | effect of CAMK1D knockdown on drug treatment [1] | effect of knockdown of AAK1 and interaction partners on drug treatment [2]
 | CCC(=O)Nc1cccc(Oc2nc(Nc3ccc(N4CCN(C)CC4)cc3OC)ncc2Cl)c1 [WZ4003] | still significant | dose-dependent |  | 
 | O=c1[nH]c2ccc(Cl)cc2c(N[C@@H]2CN3CCC2CC3)c1-c1nc2ccccc2[nH]1 [CHIR-124] |  |  | sensitizes | sensitizes
~2 | CCc1cnn2c(NCc3ccc[n+]([O-])c3)cc(N3CCCC[C@H]3CCO)nc12 [dinaciclib, Dinaciclib] |  |  |  | 
~3 | NC(=O)Nc1cc(-c2cccc(F)c2)sc1C(=O)N[C@H]1CCCNC1 [AZD7762] |  | dose-dependent | sensitizes | sensitizes
